Laboratory results reported in patent publication US7321046B2, “Analogs of dictyostatin, intermediates therefor and methods of synthesis thereof” (University of Pittsburgh, priority 2002, dated 2008).
Read-outs that look alike come from different tables or passages of the source.

What was measured:
[1] = ester bond, toluene, 2 steps
[2] = system: HeLa cells; test: Multiparameter fluorescence high information content analysis of cellular effects; assay type: cell-based; design: unit not given here; settings: 24 h treatment; for Minimum detectable cellular change, Nuclear condensation: Hoechst 33342
Experimental: HeLa cells were plated on collagen-coated 384-well microtiter plates, allowed to attach, then treated for 24 h with test agents. Test agent concentrations began at 1 μM, and two-fold dilutions were made to levels below 1 nM. After the treatment period, the cells were fixed with formalin and their chromatin stained with Hoechst 33342. Cells were permeabilized and treated with primary antibodies for α-tubulin and phosphohistone H3, and then with fluorophore-labeled secondary antibodies. The three fluorescent channels were then examined on an ArrayScan II, which gives quantitative pixel distribution and density information in each channel on a per cell basis.
HeLa cells growing at log phase were trypsinized and plated in 40 μL at a density of 7,000-8,000 cells per well in calf skin collagen I-coated 384-well plates (Falcon #3962; Fisher Scientific). Cells were exposed to test agents or 0.5% DMSO within 2-8 h of plating. Concentrated DMSO stock solutions of all test agents were diluted into solutions of HBSS medium plus 10% FBS and added to the microplate wells (10 μL per well), using an automated liquid handling system (Biomek® 2000; Beckman-Coulter, Inc.) to provide a serial 2-fold dilution of each test agent. The cells were incubated in the presence of test agents for 24 h. At the end of the incubation, the medium was removed and replaced with HBSS containing 4% formaldehyde and 10 μg/mL Hoechst 33342 (25 μL/well) to fix the cells and fluorescently label their chromatin. After incubation at room temperature for 20-30 min, the solution was removed from each well and replaced with HBSS (100 μL/well). Further reagent additions were made to the microplates using the Biomek 2000. After removing the HBSS from each well, cells were permeabilized for 5 min at room temperature with 0.5% (w/w) Triton X-100 in HBSS (10 μL/well). This step extracts a fraction of the soluble cellular components, including soluble tubulin. The wells were washed with HBSS (100 μL/well), followed by addition of a primary antibody solution containing mouse anti-α-tubulin (1:3000) and rabbit anti-phosphohistone H3 (1:500) in HBSS (10 μL/well). After 1 h at room temperature, the wells were washed with HBSS as above, followed by the addition of a secondary antibody solution containing fluorescein-5-isothiocyanate (FITC)-labeled donkey anti-mouse (1:300) and Cy3-labeled donkey anti-rabbit (1:300) antibodies diluted in HBSS (10 μL/well). After 1 h at room temperature, the wells were washed as above, and HBSS was added (100 μL/well). The plates were placed in an ArrayScan® HCS Reader with the Target Activation BioApplication Software coupled to Cellomics® Store and the vHCS™ Discovery Toolbox (Cellomics, Inc.) to analyze images. Briefly, the instrument was used to scan multiple optical fields, each with multiparameter fluorescence, within a subset of the wells of the 384-well microplate. The BioApplication software produced multiple numerical feature values, such as subcellular object intensities, shapes, and location for each cell within an optical field. […] A nuclear mask was generated from Hoechst 33342-stained nuclei, and object identification thresholds and shape parameters were set such that the algorithm identified over 90% of the nuclei in each field. Objects that touched each other or the edge of the image were excluded from the analysis. Tubulin mass was defined as the average green (FITC) pixel intensity in an area defined by the Hoechst-defined nuclear mask. This cytoplasmic area around the nucleus contains cytoskeletal components is a region from which sensitive measurements of cytoplasmic characteristics can be made.

[3] = system: T1, Bovine brain tubulin; test: Pelleting assay (tubulin assembly EC50 determination); assay type: biochemical; settings: tubulin 10 μM in 0.2 M MSG, 15 min at 20° C.; for EC50: concentration required to polymerize 50% of tubulin, read-out: EC50 (μM) ± SD (N)
T1 construct: Bovine brain tubulin (10 μM) in 0.2 M MSG, 15 min at 20° C
Experimental: Dictyostatin and representative analogs were evaluated in a quantitative assay for their ability to promote tubulin polymerization. […] When the percent polymer formed was determined in the reactions, a comparison of the activities of all the analogs could be made.
The assay was performed under three different reaction conditions following the procedure reported earlier (Gapud et al., 2004). Reaction condition 1 included 0.2 M monosodium glutamate (MSG), 10 μM tubulin, 5% DMSO and varying concentrations of test agents. Reaction condition 2 included 0.8 M MSG, 400 μM GTP, 10 μM tubulin, 5% DMSO, and varying concentrations of test agents. Reaction condition 3 had 0.6 M MSG, 200 μM GTP, and 10 μM tubulin, and 5% DMSO, and varying concentrations of the test agents. The experimental protocol for all the three reaction conditions was the following. The reaction mixtures were incubated at room temperature (20-22° C.) for 15 min and spun for 10 min at 14,000 rpm in an Eppendorf microtube centrifuge. Aliquots of the supernatants were removed and assayed for protein content by the method of Lowry.

[4] = system: 1A9/Ptx10 (Phe270 −> Val) β-tubulin mutant cells; test: Antiproliferative assay (GI50, MTS), paclitaxel-resistant clone; assay type: cell-based, human; settings: for fold-resistance: 1A9/Ptx10 versus parental 1A9; for GI50: 1A9/Ptx10 (Phe270 −> Val), 72 h incubation, read-out: GI50 ± S.D.
Experimental: (§1) Representative analogs were examined for their antiproliferative activities against human ovarian carcinoma 1A9 cells and their paclitaxel-resistant mutants, 1A9/Ptx10 and 1A9/Ptx22.
(§2) The effects of dictyostatin and its analogs on growth inhibition of parental (A549) and paclitaxel-resistant (1A9/Ptx10 and Ptx22) ovarian adenocarcinoma cell lines were evaluated following the antiproliferative assay protocol as described earlier (Minguez et al., 2003; Choy et al., 2003; Lazo et al., 2001). Cells were maintained in RPMI medium with 10% FBS in it, plated in tissue culture plates, and allowed to grow for 48-72 h before transferring them into 96-well plates. Cells were allowed to attach and grow for 48 h in 96-well plates after which they were treated with either control (DMSO) or drug in triplicate/quadruplicate. Cells were incubated with the compounds for 72 h. Cells were treated with MTS reagent before reading the plate in a Dynamax plate reader for determining the cell number. The fifty percent growth inhibition values (GI50 values) were calculated for the compounds against all the three cell lines.

[5] = system: 1A9/Ptx22 (Ala364 −> Thr) β-tubulin mutant cells; test: as above; assay type: cell-based, human; settings: for fold-resistance: 1A9/Ptx22 versus parental 1A9; for GI50: 1A9/Ptx22 (Ala364 −> Thr), 72 h incubation, read-out: GI50 ± S.D.
Experimental: as §1, §2

[6] = system: human ovarian carcinoma cells (1A9); test: Antiproliferative assay (GI50, MTS); assay type: cell-based; settings: for GI50: 1A9 parental cells, 72 h incubation, read-out: GI50 ± S.D.; for antiproliferative potency / GI50 values (in words): Table 1 (1A9 and mutant lines)
Experimental: as §1
as §2, with “The effects of dictyostatin and its analogs on growth inhibition of parental (A549) and paclitaxel-resistant (1A9/Ptx10 and Ptx22) ovarian adenocarcinoma cell lines were evaluated following the antiproliferative assay protocol as described earlier (Minguez et al., 2003; Choy et al., 2003; Lazo et al., 2001).” left out

[7] = system: microtubules (tubulin polymer); test: Radiolabeled ligand binding assays; settings: test agent 4 μM; radiolabel 4.0 μM; 37° C.
Experimental: The abilities of test agents to inhibit the binding of radiolabeled forms of the microtubule stabilizers paclitaxel, discodermolide and epothilone B from tubulin polymer were determined.
[^3H]Paclitaxel, [^3H]discodermolide and [^14C]epothilone B solutions were prepared as 125 μM stock solutions in 50% DMSO. Radiolabeled compound (final concentration, 4.0 μM) and test agents at final concentrations noted in the text and tables were mixed in 50 μL of 4:1 (v/v) 0.75 M aqueous MSG/DMSO and warmed to 37° C. Meanwhile, a reaction mixture containing 0.75 M MSG, 2.5 μM tubulin, and 25 μM ddGTP was prepared and incubated at 37° C. for 30 min to form microtubuless. A 200 μL aliquot of the microtubule mixture was added to the drug mixtures, and incubation continued for 30 min at 37° C. Reaction mixtures were centrifuged in an Eppendorf 5417C centrifuge at 14,000 rpm for 20 min at room temperature. Radiolabel in the supernatants (100 μL) was determined by scintillation spectrometry.

C=C/C=C\[C@H](C)[C@@H]1OC(=O)/C=C\C=C\[C@@H](C)[C@@H](O[Si](C)(C)C(C)(C)C)C[C@H](O[Si](C)(C)C(C)(C)C)/C=C\[C@H](C)[C@H](O[Si](C)(C)C(C)(C)C)[C@@H](C)C[C@@H](C)CC[C@H](O[Si](C)(C)C(C)(C)C)[C@@H]1C showed a ring closure, yield of all isomers ([1]; from C=C/C=C\[C@H](C)[C@H](O)[C@@H](C)[C@H](CC[C@H](C)C[C@H](C)[C@@H](O[Si](C)(C)C(C)(C)C)[C@@H](C)/C=C\[C@H](C[C@H](O[Si](C)(C)C(C)(C)C)[C@H](C)/C=C/C=C\C(=O)O)O[Si](C)(C)C(C)(C)C)O[Si](C)(C)C(C)(C)C, 2,4,6-trichlorobenzoyl chloride / Et3N / DMAP (Yamaguchi), 1.74 mM, 25.0 °C, 12.0 h) of 78%.

Work on C=C/C=C\[C@H](C)[C@@H]1OC(=O)/C=C\C=C\[C@@H](C)[C@@H](O[Si](C)(C)C(C)(C)C)C[C@H](O[Si](C)(C)C(C)(C)C)/C=C\[C@H](C)[C@H](O[Si](C)(C)C(C)(C)C)[C@@H](C)CCCC[C@@H](O[Si](C)(C)C(C)(C)C)[C@@H]1C yielded a ring closure, yield of all isomers ([1]; from C=C/C=C\[C@H](C)[C@H](O)[C@@H](C)[C@@H](CCCC[C@H](C)[C@@H](O[Si](C)(C)C(C)(C)C)[C@@H](C)/C=C\[C@H](C[C@H](O[Si](C)(C)C(C)(C)C)[C@H](C)/C=C/C=C\C(=O)O)O[Si](C)(C)C(C)(C)C)O[Si](C)(C)C(C)(C)C, 2,4,6-trichlorobenzoyl chloride / Et3N / DMAP, 2.0 mM) of 76%.

With CC(=O)O[C@H]1C(=O)[C@@]2(C)[C@H]([C@H](OC(=O)c3ccccc3)[C@]3(O)C[C@H](OC(=O)[C@H](O)[C@@H](NC(=O)c4ccccc4)c4ccccc4)C(C)=C1C3(C)C)[C@]1(OC(C)=O)CO[C@@H]1C[C@@H]2O [paclitaxel, reference compound] the “Minimum detectable cellular change, Phosphohistone H3” value [2] was 17.5 ± 6.8 (4), the “Minimum detectable cellular change, Tubulin polymer intensity” value [2] was 8.0 ± 2.9 (4) and the “Minimum detectable cellular change, Nuclear condensation” value [2] was 40.2 ± 13.9 (4). For the same compound, the “% Tubulin polymerized by 50 μM test agent” value [3] was 89 ± 6%, the EC50 [3] was 25 ± 3 µM and the fold-resistance [4] was 90 fold. For the same compound, the fold-resistance ([4]; listed as Paclitaxel) was “ca. 90 fold”, the GI50 ([4]; Homo sapiens, 1A9/ptx-10, 72 h) was 64 ± 8 nM and the fold-resistance [5] was 72 fold. The fold-resistance ([5]; listed as Paclitaxel) was roughly 70 fold, the GI50 ([5]; Homo sapiens, 1A9/ptx-22, 72 h) was 51 ± 9 nM and the GI50 ([6]; Homo sapiens, Ovarian carcinoma cell, 72 h) was 0.71 ± 0.11 nM. The “antiproliferative potency / GI50 values (in words)” value [6] was “subnanomolar potency”, the “Percent inhibition of radiolabel from microtubules, [3H]Discodermolide” value [7] was 6 ± 5 (3) % and the “Percent inhibition of radiolabel from microtubules, [14C]Epothilone B” value [7] was 26 ± 1 (3) %.

In the case of C=C/C=C\[C@H](C)[C@@H]1OC(=O)/C=C\C=C\[C@@H](C)[C@@H](O[Si](C)(C)C(C)(C)C)C[C@H](O[Si](C)(C)C(C)(C)C)/C=C\[C@H](C)[C@H](O[Si](C)(C)C(C)(C)C)[C@@H](C)C[C@@H](C)CC[C@@H](O[Si](C)(C)C(C)(C)C)[C@@H]1C, the ring closure, yield of all isomers ([1]; from C=C/C=C\[C@H](C)[C@H](O)[C@@H](C)[C@@H](CC[C@H](C)C[C@H](C)[C@@H](O[Si](C)(C)C(C)(C)C)[C@@H](C)/C=C\[C@H](C[C@H](O[Si](C)(C)C(C)(C)C)[C@H](C)/C=C/C=C\C(=O)O)O[Si](C)(C)C(C)(C)C)O[Si](C)(C)C(C)(C)C, 2,4,6-trichlorobenzoyl chloride / Et3N / DMAP (Yamaguchi), 1.71 mM, 25.0 °C, 12.0 h) is reported as 78%.

With C=CC=CC(C)C1OC(=O)C=CC=CC(C)C(O)CC(O)C=CC(C)C(O)C(C)CC(C)CCC(O)C1C [Compound 100, 8(S),10(S),14(R),20(R)-Tetrahydroxy-7(S),13(S),15(R),17(S),21 (S)-pentamethyl-22(S)-(1(S)-methyl-penta-2,4-dienyl)-oxa-cyclodocosa-3(E),5(E),11(Z)-trien-2-one] the “Minimum detectable cellular change, Phosphohistone H3” value [2] was >5000 (4), the “Minimum detectable cellular change, Tubulin polymer intensity” value [2] was >5000 (4) and the “Minimum detectable cellular change, Nuclear condensation” value [2] was >5000 (4). The “% Tubulin polymerized by 50 μM test agent” value [3] was 1 ± 1%, the EC50 [3] was greater than 50 µM and the fold-resistance [4] was 2.5 fold. For the same compound, the GI50 [4] was 780 ± 200 nM, the fold-resistance [5] was 2.5 fold and the GI50 [5] was 790 ± 560 nM. For the same compound, the “antiproliferative potency / GI50 values (in words)” value [6] was “high nanomolar GI50 values”, the GI50 [6] was 310 ± 40 nM and the “Percent inhibition of radiolabel from microtubules, [3H]Paclitaxel” value [7] was 0 ± 1%.
